This is an account of results in patent US8536332B2, “Modulating signal transduction pathways with substituted pyridol [2,3-b] pyrazines” (Aeterna Zentaris GmbH, priority 2007, dated 2013).

The target of one series is T1, PI3Kalpha (Homo sapiens, UniProt P42336).
T1 construct: purchased Upstate #14-602
The series can be described thus: Cell-free kinase assay PI3K-ALPHA. The class given is biochemical. The procedure: (§1) The inhibitory effect of the compounds of the invention was tested on various human serine/threonine kinases, tyrosine kinases and lipid kinases in enzymatic assays. Recombinant human kinases, for example PI3Kalpha, -beta, -gamma, -delta, Erk2, p38alpha, p38gamma, Jnk1, Jnk2 and others were used, in some cases as full-length kinases, in some cases as truncated fragments—but at least consisting of the functional kinase domains. The commercial kinase proteins (Proqinase, Upstate) were used as recombinant fusion proteins with GST (glutathione S-transferase) tag or His tag. Depending on the substrate type, the different kinase reactions were quantified by suitable ALPHA™ beads (PerkinElmer).
(§2) The kinase assays for PI3K and Erk are described in detail and selected test results are cited below. […] Subsequently, the kinase reaction was stopped by adding the ALPHA bead mix (10 μg/ml, #6760603/PerkinElmer), preincubated with 1 nM GST:Grp1 fusion protein (Upstate) and […] (#C-39B6/Echelon) in 50 mM Hepes, 50 mM NaCl, 50 mM EDTA and 0.1% BSA, and left to stand overnight. • b) Erk2-ALPHA: The test substance, 0.625 ng of Erk2 (#14-173, Upstate), 10 μM ATP and 15 nM biotinylated MBP (myelin basic protein) substrate were incubated on a 384-well Optiplate (Perkin Elmer) in a volume of 15 μl for 1 h in 25 mM Tris, 10 mM MgCl2, 0.1% Tween-20, 100 μM NaVO4, 2 mM DTT at pH 7.5. The kinase reaction was stopped by adding 10 μl of the ALPHA bead mix (10 μg/ml, #6760617/PerkinElmer), pre-incubated with anti-phospho MBP antibody (320 pM, #05-429/Upstate), in 25 mM Tris, 200 mM NaCl, 100 mM EDTA and 0.3% BSA, and left to stand overnight.
(§3) The luminiscence was detected the next morning in a Fusion™ alpha instrument (Perkin Elmer).
(§4) The calculation of % inhibition values per substance concentration was done by means of the following formula from the raw data determined in the Fusion™ alpha:
(§5) The controls were determined 8 fold and the substance samples 2 fold. 0% control contained neither any ATP nor any substrate. The 100% control contained no test substance. The IC50 values were determined with GraphPadPrism.

A short description of series [1]: Cell-free kinase assay Erk2-ALPHA. The class given is biochemical, human. As to conditions: cell-free kinase assay; MAPK = Erk2, p38alpha, Jnk1+Jnk2 of Table 1. The procedure: as §1, §2, §3, §4, §5
For a further series, the target named is T2, Erk2 (Mus musculus, UniProt P63085).
T2 construct: purchased Upstate #14-173
T2 sequence (P63085 whole entry): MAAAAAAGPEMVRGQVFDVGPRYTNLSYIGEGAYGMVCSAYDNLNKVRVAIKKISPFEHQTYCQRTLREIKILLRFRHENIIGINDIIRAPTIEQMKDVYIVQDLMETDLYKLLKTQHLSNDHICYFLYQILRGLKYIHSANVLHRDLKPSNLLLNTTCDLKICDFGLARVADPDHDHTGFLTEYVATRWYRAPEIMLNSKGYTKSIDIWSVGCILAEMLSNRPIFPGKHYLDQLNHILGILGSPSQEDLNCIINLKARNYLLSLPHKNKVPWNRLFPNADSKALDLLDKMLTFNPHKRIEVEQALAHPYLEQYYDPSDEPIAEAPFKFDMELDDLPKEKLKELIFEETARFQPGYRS
The series can be described thus: Cell-free kinase assay Erk2-ALPHA. The class given is biochemical, human. As to conditions: 10 μM ATP. On the procedure: as §1, §2, §3, §4, §5

The target of another series is p38alpha (Homo sapiens, UniProt Q16539). The series can be described thus: Cell-free kinase assay (ALPHA technology) p38alpha. The class given is biochemical. As to conditions: 10 μM ATP. On the procedure: as §1, §2, §3, §4, §5
Chain of p38alpha (Q16539 whole entry): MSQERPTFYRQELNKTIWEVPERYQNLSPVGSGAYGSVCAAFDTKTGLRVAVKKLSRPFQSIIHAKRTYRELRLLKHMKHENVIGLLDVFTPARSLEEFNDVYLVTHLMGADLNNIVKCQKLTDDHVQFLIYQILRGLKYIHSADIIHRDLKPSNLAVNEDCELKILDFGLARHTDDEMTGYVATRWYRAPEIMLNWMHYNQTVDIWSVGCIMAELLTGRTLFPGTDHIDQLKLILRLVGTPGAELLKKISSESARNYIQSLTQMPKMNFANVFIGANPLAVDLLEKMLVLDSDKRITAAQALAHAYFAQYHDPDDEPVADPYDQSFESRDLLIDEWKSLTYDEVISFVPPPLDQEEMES
The next series has as its system T3, Jnk1 + Jnk2.
T3 construct: fused on or other part: GST tag or His tag (commercial recombinant fusion proteins from Proqinase or Upstate)
Briefly: Cell-free kinase assay (ALPHA technology) Jnk1 + Jnk2. The class given is biochemical, human. As to conditions: 10 μM ATP. On the procedure: as §1, §2, §3, §4, §5

The test system of the next series is MDA-MB468. The series can be described thus: XTT assay, anti-proliferative activity, MDA-MB468. The class given is cell-based. As to conditions: Homo sapiens, MDA-MB-468; 45 h incubation. The procedure:
(§6) The principle of this test is based on the intracellular reduction of the tetrazolium dye XTT (sodium 3′-[1-(phenylaminocarbonyl)-3,4-tetrazolium]bis(4-methoxy-6-nitro)benzenesulphonic acid, Sigma) to a formazan dye by mitochondrial dehydrogenases. The dye is formed only by metabolically active cells. Its photometrically measurable intensity is a quantitative indicator for the presence of living cells. The reduction in the dye formation as a result of incubation of the cells with substances serves as a parameter for the anti-proliferative activity.
(§7) The tumour cell lines (ATCC) were seeded in 96-well microtitre plates in a defined cell count (5000 cells/well for Hct116; 10000 cells/well for MDA MB468), and incubated overnight at 37° C., 5% CO2 and 95% air humidity. The test substances were made up as stock solutions (10 mM) in DMSO. […] The cell plates were then incubated for 45 h at 37° C., 5% CO2 and 95% air humidity.
(§8) For the detection reaction, the XTT substrate was mixed with PMS (N-methyldibenzopyrazine methylsulphate, Sigma) and added to the cells, to result in a final concentration of 325 μg of XTT/ml and 2.5 μg PMS/ml. The mixture was then incubated for 3 h at 37° C., 95% air humidity. Subsequently the formazan salt formed by cellular dehydrogenases was quantified at an absorption of 490 nm.
(§9) The evaluation of the % inhibition values was done by means of the following formula from the values for the optical densities measured in each case at 490 nm:
(§10) The controls were determined 8 fold, the substance samples 2 fold. 0% control contained no cells and the 100% control contained no test substance. The EC50 values were determined with GraphPadPrism.
For orientation: Tetrazolium assays rely on reduction of a dye to a coloured formazan, in cell work by metabolically active cells.

For the next series, the system named is Hct116. Briefly: XTT assay, anti-proliferative activity, Hct116. The class given is cell-based. As to conditions: Homo sapiens, HCT-116; 45 h incubation. On the procedure:
as §6, §7, §8, §9, §10

A further series relates to Phospho-Akt (Ser 473). Briefly: Cellular substrate phosphorylation (Western blotting), PI3K →pAkt. The class given is cell-based, human. As to conditions: for inhibition at 50 µM: Homo sapiens, 5 h; for inhibition of cellular phospho-Akt / PI3K-Akt pathway, in words: Western blotting, concentrations of 5-50 μM. The procedure: (§11) This method enables a statement of whether the kinase modulator investigated achieves the desired effect in a cellular context too, i.e., in this case, a substrate protein downstream of the target kinase is examined for its phosphorylation status. To this end, the cells incubated with substance are lysed and the overall protein is separated on a reducing polyacrylamide gel. Subsequently, the proteins are transferred to a PVDF membrane by Western blotting and the substrate bands sought are made visible with specific antibodies and a suitable detection method. The substrate proteins down-stream of the target kinases are detected simultaneously with an anti-phospho antibody which is specific in each case and a total antibody which recognizes the substrate total protein. The duplex technology of the ODYSSEY imager (LiCOR) enables this simultaneous measurement. The intensity of the total substrate bands is employed to normalize and quantify the phosphorylation inhibition or activation.
(§12) Suitable tumor cell lines (e.g. BxPC3, Hct116 or MDA MB468) were seeded into 6-well microtitre plates in a defined cell count (e.g. 350 000 cells/well for BxPC3 and Hct116) in the particular standard complete media and then incubated overnight at 37° C., 5% CO2 and 95% air humidity. Afterwards, the cells were incubated for 24 h under serum-reduced conditions, i.e. in the particular medium except at only 0.25% serum. The test substances were made up as stock solutions (10 mM) in DMSO and incubated with the cells at final concentrations of 5, 15.8 and 50 μM for 5 h. This was followed by cell lysis in 25 mM Tris, 150 mM NaCl, 10 mM sodium pyrophosphate, 2 mM EGTA, 25 mM beta-glycerophosphate, 25 mM NaF, 10% glycerol, 0.75% NP-40, 100 μM NaVO4 buffer. After protein quantification using the BCA (bicinchonic acid protein assay kit, Sigma) assay, amounts of protein of about 20 μg per track were separated on a Lämmli polyacrylamide gel and then transferred onto a PVDF membrane (Millipore) by semi-dry Western blotting at 0.8 mA/cm^2 for 1 h. This was followed by prehybridization of the membrane for 1 hour in I-block reagent (Applied Biosystems) and overnight simultaneous incubation with the specific antibodies. […] After the membrane had been washed, the secondary antibodies were incubated with anti-rabbit IR Dye 800 (#611-732-127, Rockland) for the phospho antibodies and anti-goat Alexa Fluor 680 (#A-21081, […]) for the total protein antibodies. After incubation for 30 min at room temperature in the dark, the hybridization of the detection antibody was detected on the membrane by scanning in an ODYSSEY imager (LiCOR).
A general note: Immunoblotting shows a protein as a band on a membrane.

In a further series the test system is Phospho-p90RSK (S380). The series can be described thus: Cellular substrate phosphorylation (Western blotting), Erk →pRsk. The class given is cell-based, human. As to conditions: for inhibition at 50 µM: Homo sapiens, 5 h; for inhibition of phospho-Rsk / Raf-Mek-Erk pathway, in words: Western blotting, concentrations of 5-50 μM. On the procedure:
as §11, §12

Another series relates to p110alpha H107R. As to conditions: cited from earlier work.

T1 sequence (P42336 whole entry): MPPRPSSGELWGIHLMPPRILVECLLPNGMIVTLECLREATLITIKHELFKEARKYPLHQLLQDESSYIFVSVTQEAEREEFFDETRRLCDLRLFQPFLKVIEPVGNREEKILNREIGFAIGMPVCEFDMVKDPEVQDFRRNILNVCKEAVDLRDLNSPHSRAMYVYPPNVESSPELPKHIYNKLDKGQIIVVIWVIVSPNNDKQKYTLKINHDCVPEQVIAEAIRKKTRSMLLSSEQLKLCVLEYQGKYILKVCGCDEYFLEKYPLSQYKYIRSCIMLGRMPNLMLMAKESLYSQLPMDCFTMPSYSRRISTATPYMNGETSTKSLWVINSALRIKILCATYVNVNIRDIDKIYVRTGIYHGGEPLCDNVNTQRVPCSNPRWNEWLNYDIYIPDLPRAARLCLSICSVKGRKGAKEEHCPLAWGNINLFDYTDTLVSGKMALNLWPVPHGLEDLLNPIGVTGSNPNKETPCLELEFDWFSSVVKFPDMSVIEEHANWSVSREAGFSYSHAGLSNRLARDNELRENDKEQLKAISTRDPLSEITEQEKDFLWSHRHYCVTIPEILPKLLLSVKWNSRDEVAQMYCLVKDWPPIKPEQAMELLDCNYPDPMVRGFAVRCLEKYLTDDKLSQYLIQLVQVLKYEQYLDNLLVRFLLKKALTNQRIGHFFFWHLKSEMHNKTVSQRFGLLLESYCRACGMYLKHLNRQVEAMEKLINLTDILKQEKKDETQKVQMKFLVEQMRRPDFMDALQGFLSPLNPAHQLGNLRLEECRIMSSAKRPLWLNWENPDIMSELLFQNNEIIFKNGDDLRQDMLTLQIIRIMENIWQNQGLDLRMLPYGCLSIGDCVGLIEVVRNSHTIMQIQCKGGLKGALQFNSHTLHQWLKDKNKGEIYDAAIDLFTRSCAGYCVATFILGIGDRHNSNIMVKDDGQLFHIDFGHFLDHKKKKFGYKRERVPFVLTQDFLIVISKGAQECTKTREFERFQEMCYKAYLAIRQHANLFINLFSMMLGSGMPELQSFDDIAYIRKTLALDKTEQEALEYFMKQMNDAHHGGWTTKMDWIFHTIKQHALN
T1 sequence (P27986 whole entry partner): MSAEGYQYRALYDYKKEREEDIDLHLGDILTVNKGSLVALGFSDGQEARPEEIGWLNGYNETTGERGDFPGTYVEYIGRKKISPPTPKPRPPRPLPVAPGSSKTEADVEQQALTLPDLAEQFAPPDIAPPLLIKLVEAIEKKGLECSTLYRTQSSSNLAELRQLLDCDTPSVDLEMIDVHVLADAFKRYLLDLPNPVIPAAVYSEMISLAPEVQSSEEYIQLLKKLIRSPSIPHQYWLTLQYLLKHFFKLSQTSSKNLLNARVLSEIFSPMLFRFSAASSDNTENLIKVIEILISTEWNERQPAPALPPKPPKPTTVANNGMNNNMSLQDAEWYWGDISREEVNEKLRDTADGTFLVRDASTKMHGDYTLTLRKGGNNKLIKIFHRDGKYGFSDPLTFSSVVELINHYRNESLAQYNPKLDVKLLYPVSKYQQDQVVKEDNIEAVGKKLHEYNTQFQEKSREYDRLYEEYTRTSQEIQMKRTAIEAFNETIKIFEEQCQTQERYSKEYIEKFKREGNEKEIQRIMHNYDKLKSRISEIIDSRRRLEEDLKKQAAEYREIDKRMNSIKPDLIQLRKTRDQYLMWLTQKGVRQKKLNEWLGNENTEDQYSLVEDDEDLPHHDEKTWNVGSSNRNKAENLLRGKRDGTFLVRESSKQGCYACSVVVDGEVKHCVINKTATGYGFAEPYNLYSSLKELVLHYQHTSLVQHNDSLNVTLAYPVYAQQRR

As to `CCNC(=O)Nc1ccc2ncc(Nc3ccc(O)c(C(=O)OC)c3)nc2n1` [Compound 50, 5-[6-(3-Ethyl-ureido)-pyrido[2,3-b]-pyrazin-3-ylamino]-2-hydroxy-benzoic acid methyl ester], the melting point fell in the range of 195 to 200 °C. The “PI3K inhibition, in words” value at PI3Kalpha was “PI3K inhibition”. Also, in [1], the “Erk2 / MAPK inhibition, in words” value is listed as “no or only moderate MAPK inhibition”. Further, on Erk2, the IC50 is above 100 µM. The half-inhibitory concentration (IC50) on p38alpha is above 100 µM. In the series on Jnk1 + Jnk2, the half-inhibitory concentration (IC50) is above 100 µM. In the series on MDA-MB468, this molecule showed a 50% effective concentration (EC50) below 10 µM. For the same molecule, the EC50 in the series with Hct116 was below 5 µM. In addition, in the series on Phospho-Akt (Ser 473), 50 µM produced 100% inhibition and the “inhibition of cellular phospho-Akt / PI3K-Akt pathway, in words” value is “cellular PI3K selectivity”. Besides, in the series with Phospho-p90RSK (S380), 50 µM produced 0% inhibition and the “inhibition of phospho-Rsk / Raf-Mek-Erk pathway, in words” value is “do not block the Raf-Mek-Erk pathway”.

Turning to `Cn1c(=O)n(-c2ccc(C(C)(C)C#N)cc2)c2c3cc(-c4cnc5ccccc5c4)ccc3ncc21` [BEZ-235], in the series on p110alpha H107R, the half-maximal inhibitory concentration (IC50) is 0.018 µM.

On to `CCNC(=O)Nc1ccc2ncc(Nc3cccc(O)c3)nc2n1` [Compound 56, 1-Ethyl-3-[3-(3-hydroxy-phenylamino)-pyrido[2,3-b]pyrazin-6-yl]-urea], for which the melting point fell in the range of 270 to 273 °C. Also, at PI3Kalpha, the “PI3K inhibition, in words” value was “PI3K inhibition”. In addition, the “Erk2 / MAPK inhibition, in words” value in series [1] is “no or only moderate MAPK inhibition”. Moreover, the half-maximal inhibitory concentration (IC50) on Erk2 is below 10 µM. Moreover, the half-inhibitory concentration (IC50) at p38alpha is below 10 µM. Besides, the concentration for half-maximal inhibition (IC50) in the series on Jnk1 + Jnk2 is above 10 µM. This molecule also showed an EC50 in the series on MDA-MB468 below 5 µM. Also, the concentration giving a half-maximal response (EC50) in the series with Hct116 is below 10 µM. In the series on Phospho-Akt (Ser 473), at 50 µM the inhibition was 100% and the “inhibition of cellular phospho-Akt / PI3K-Akt pathway, in words” value is “cellular PI3K selectivity”. In the series on Phospho-p90RSK (S380), the inhibition at 50 µM was 0% and the “inhibition of phospho-Rsk / Raf-Mek-Erk pathway, in words” value is recorded as “do not block the Raf-Mek-Erk pathway”.

For `CCNC(=O)Nc1ccc2ncc(-c3ccc(OC)c(O)c3)nc2n1` [Compound 46, 1-Ethyl-3-[3-(3-hydroxy-4-methoxy-phenyl)-pyrido[2,3-b]pyrazin-6-yl]-urea], the melting point is above 270 °C. For the same molecule, the “PI3K inhibition, in words” value at PI3Kalpha is given as “inhibition of PI3K”. The “Erk2 / MAPK inhibition, in words” value in series [1] is “inhibition of PI3K and Erk2”. Also, the concentration for half-maximal inhibition (IC50) at Erk2 is below 0.5 µM. The half-inhibitory concentration (IC50) at p38alpha was above 100 µM. Besides, the IC50 in the series on Jnk1 + Jnk2 is below 1 µM. Moreover, the 50% effective concentration (EC50) in the series with MDA-MB468 is below 10 µM. Moreover, the EC50 in the series on Hct116 is below 10 µM. Besides, in the series on Phospho-Akt (Ser 473), at 50 µM the inhibition was 40% and the “inhibition of cellular phospho-Akt / PI3K-Akt pathway, in words” value was “inhibit both”. Further, in the series with Phospho-p90RSK (S380), testing at 50 µM gave an inhibition of 100% and the “inhibition of phospho-Rsk / Raf-Mek-Erk pathway, in words” value is “inhibit both”.

A word on the IC50: it is the concentration at which inhibition is half-maximal. Usually EC50 stands for the concentration that produces a half-maximal response. One may read the inhibition as the share of the control response that was lost under treatment. As a reminder, the melting point is the temperature, or range, at which the solid turns liquid.
